Source: patent US7230033B2, “Pest control compositions and methods for their use” (United States of America as represented by the Secretary of …, priority 2000, dated 2007)
In brackets after ≈: the same amount, converted by molar mass.

How the values were obtained:
I. scapularis nymphs = test: Tick bioassay, treated 2-dram vials, probit analysis; format: in vivo, Ixodes scapularis; settings: 24 h exposure; for Slope: probit
Text: A control treated with acetone only was run with each series.
For each time point, if ticks and fleas were incapable of movement, maintaining normal posture, leg coordination, ability to right themselves, or any signs of life, they were considered moribund or dead.

X. cheopis adults = test: Flea bioassay, treated 2-dram vials, probit analysis; format: in vivo, Xenopsylla cheopis; settings: 24 h exposure; for Slope: probit
Procedure: Med. […] A control treated with acetone only was run with each series. Tick and flea susceptibility was evaluated using a modification of the disposable pipette method of Barnard et al. (J. Econ. Entomol., 74:466-69, 1981) and Maupin and […]. Med. […] The inner surface of 2-dram friction cap vials were treated with the compound/acetone solution, or acetone only as a control, and left to air-dry overnight (see also, […] et al., J. Med. […] Three to 4 holes were made in the plastic cap to allow for air exchange. Nymphal ticks and adult fleas were then placed directly into the vials using forceps. […] For each time point, if ticks and fleas were incapable of movement, maintaining normal posture, leg coordination, ability to right themselves, or any signs of life, they were considered moribund or dead.

Ae. aegypti adults = test: Adult mosquito bottle bioassay; format: in vivo, Aedes aegypti; settings: 24 h exposure; for Slope: probit
Procedure: (§1) Adult mosquitoes were tested using the bottle bioassay method of Brogden and McAllister (J. Am. Mosq. Control Assoc., 14:159–64, 1998) with minor modifications. Natural product extracts were two-fold serially diluted for a total of 8 concentrations ranging from 0.002% to 0.25% in 1.5 ml of acetone. Individual dilutions were added to 250 ml Wheaton glass bottles and capped. Bottles were manipulated to evenly coat all inner surfaces. The caps were removed and bottles were allowed to air-dry overnight. Once bottles were completely dry, 10–50 (in some tests 25–50) adult mosquitoes were aspirated into the bottles. Mosquitoes were held in the bottles for 24 h at 23° C. and 85% RH. Morbidity and mortality were recorded at 15, 30, 45, and 60 min and 24 hour intervals. One bottle for each replicate was treated with acetone only and served as a control. The dose-mortality data was evaluated with probit analysis, using the LdP Line software, to determine LC50 and LC90 values.
Carvacrol was combined with compound 7, 9, or 10 at a 1:1 ratio (7.5 μl of carvacrol:7.5 μl of compound 7, 9, or 10 was added to 2,985 μl of acetone for a 0.5% solution, from which serial dilutions were made), and tested as previously described against nymphal ticks and adult and larval mosquitoes.

[1] = test system: Ixodes scapularis nymphal ticks; test: Tick repellency bioassay; format: in vivo
Text: One-hundred (100) μl of test compound was pipetted onto a cotton-tipped applicator mounted to the bottom center of a 1 dram glass shell vial using non-toxic modeling clay. A total of 8 concentrations were screened with doses ranging from 0.04–5.0%. Applicators treated with acetone only served as controls. A line was drawn around the perimeter of the vial immediate to the base of the treated cotton portion of the applicator. The area above the line was designated the “repellent zone”. The vial was allowed to air-dry 1 h before a single tick was introduced. Vials were covered with a single piece of mesh and fitted with a hollowed-out plastic cap to cover the opening of the vial; this prevented the tick from escaping but allowed for air exchange. Vials were breathed upon by investigators at 1 min intervals and a hand was placed over the test vials to provide stimuli for ticks to pass into the repellent zone. […] If the tick crossed over and remained in the “repellent zone” for ≧5 sec, the tick was deemed non-repelled by the test compound. Each test was replicated 10 times using a new tick for each test. Repellent activity was determined at 1, 2, 3, and 4 h after treatment. Probit analysis was used to determine repellent efficacy (RD50 and RD95).

Ixodes scapularis nymphs = test: Residual activity, aged treated vials, ticks; format: in vivo; settings: for LC90, residual activity: NE = not effective
Procedure: (§2) Briefly, groups of 10 nymphal I. scapularis and X. cheopis fleas were used in all tests (more than a total of 5,240 nymphs and 4,860 fleas were exposed to the compounds). The inner surface of 2-dram friction cap vials were treated with the compound/acetone solution, or acetone only as a control, and left to air-dry overnight (see also, Panella et al., J. Med. Entomol., 42(3):352-358, 2005. Three to 4 holes were made in the plastic cap to allow for air exchange. Nymphal ticks and adult fleas were then placed directly into the vials using forceps. Vials containing ticks or fleas were placed in desiccators for 24 h at 21° C. and 90% RH. Morbidity and mortality was recorded at 1, 2, 4, 8, and 24 h after initial exposure.

[2] = test system: Xenopsylla cheopis adults; test: Residual activity, aged treated vials, fleas; format: in vivo
Procedure: as §2

Aedes aegypti adults = test: Residual activity, aged treated bottles, mosquitoes; format: in vivo
Procedure: as §1

[3] = test system: ticks, fleas, and mosquitoes; test: Residual activity, general statements (Examples 9, 17); format: in vivo; settings: ticks
[4] = NE = not effective at concentrations tested
[5] = 2 weeks after treatment, NE = not effective
[6] = 1 h after compound applied to applicator
[7] = 4 h after compound applied to applicator

C=C(C)C1CCC23OC2C(=O)C[C@@H](C)[C@]3(C)C1 (stereo partly shown) [Compound 17, nootkatone-1,10-epoxide]
Slope (I. scapularis nymphs): 2.883
Slope (X. cheopis adults): 2.326
Slope (Ae. aegypti adults): 1.346
RD50 ([1]; 1 hr, combinations 1:1 by weight): 3×10^−1 % (w/v)
RD50 ([1]; 4 hr, combinations 1:1 by weight): 0.135 % (w/v)

C=C(C)[C@@H]1CCC2=CC(=O)C[C@@H](C)[C@]2(C)C1 [Compound 8, Nootkatone]
LC90 (I. scapularis nymphs; [4]): 0.015 percent concentration, wt:vol
Slope (I. scapularis nymphs): 3.211
LC90 (X. cheopis adults; [4]): 0.008 percent concentration, wt:vol
Slope (X. cheopis adults): 2.949
LC90 (Ae. aegypti adults; [4]): 0.0087 percent concentration, wt:vol
Slope (Ae. aegypti adults): 4.635
LC50 (Ae. aegypti adults; Aedes aegypti, NE = not effective at concentrations tested, read-out: LC50): 46 µg/mL (≈ 211 µM)
Slope, residual activity (Ixodes scapularis nymphs; 1 week after treatment): 2.871
Slope, residual activity (Ixodes scapularis nymphs; 2 weeks after treatment): 2.727
LC90, residual activity (Ixodes scapularis nymphs; 2 weeks after treatment): 0.056 percent concentration, wt:vol
Slope, residual activity (Ixodes scapularis nymphs; 4 weeks after treatment): 2.871
Slope, residual activity ([2]; 1 week after treatment): 3.107
LC90, residual activity ([2]; 1 week after treatment, NE = not effective): 0.053 percent concentration, wt:vol
LC90, residual activity ([2]; 2 weeks after treatment): 0.081 percent concentration, wt:vol
Slope, residual activity ([2]; 2 weeks after treatment): 1.931
Slope, residual activity ([2]; 4 weeks after treatment): 1.95
Slope, residual activity (Aedes aegypti adults; 1 week after treatment): 3.858
Slope, residual activity (Aedes aegypti adults; 2 weeks after treatment): 4.953
LC90, residual activity (Aedes aegypti adults; [5]): 0.012 percent concentration, wt:vol
Slope, residual activity (Aedes aegypti adults; 4 weeks after treatment): 7.772
residual activity [3]: considerable biological activity through the four week time period

C=C(C=O)C1CCC2=CCC[C@@H](C)[C@]2(C)C1 (stereo partly shown) [Compound 15, valencene-13-aldehyde]
Slope (I. scapularis nymphs): 2.755
Slope (X. cheopis adults): 5.366
Slope (Ae. aegypti adults): 8.714
Slope, residual activity (Ixodes scapularis nymphs; 1 week after treatment): 2.859
LC90, residual activity (Ixodes scapularis nymphs; 1 week after treatment): 0.072 percent concentration, wt:vol
Slope, residual activity ([2]; 1 week after treatment): 3.211
LC90, residual activity (Aedes aegypti adults; 1 week after treatment): 0.027 percent concentration, wt:vol
Slope, residual activity (Aedes aegypti adults; 1 week after treatment): 3.392
Slope, residual activity (Aedes aegypti adults; 2 weeks after treatment): 3.136
LC90, residual activity (Aedes aegypti adults; [5]): 0.037 percent concentration, wt:vol
residual activity [3]: considerable biological activity through the four week time period

CCN(CC)C(=O)c1cccc(C)c1 [Deet, N, N-diethyl-m-toluamide, reference compound]
Slope (±SEM) ([1]; 1 h): 0.633 (±0.222)
RD50 [1, 6]: 0.167 % (wt:vol)
RD95 [1, 6]: 50.579 % (wt:vol)
Slope (±SEM) ([1]; 4 h): 0.485 (±0.212)
RD50 [1, 7]: 0.384 % (wt:vol)
RD95 [1, 7]: 950.294 % (wt:vol)
